Test results published in ChEMBL document CHEMBL5257057.
Active and inactive are the calls of the source. No cut-off for these calls is given here.

Experiments:
[1] = molecular target: Tyrosine-protein kinase BTK (Homo sapiens) (UniProt Q06187); assay: Inhibition of BTK phosphorylation in human JeKo-1 cells at 0.01 to 10 uM incubated for 2 hrs by Western blot analysis; format: cell-based; details: dose 0.01-10 µM
[2] = molecular target: Tyrosine-protein kinase BTK (Homo sapiens) (UniProt Q06187); assay: Inhibition of BTK (unknown origin) at 1 uM relative to control
[3] = molecular target: Tyrosine-protein kinase Blk (Homo sapiens) (UniProt P51451); assay: Inhibition of BLK (unknown origin) at 1 uM relative to control
Tyrosine-protein kinase Blk (Homo sapiens), sequence (P51451 2-505 limits assumed): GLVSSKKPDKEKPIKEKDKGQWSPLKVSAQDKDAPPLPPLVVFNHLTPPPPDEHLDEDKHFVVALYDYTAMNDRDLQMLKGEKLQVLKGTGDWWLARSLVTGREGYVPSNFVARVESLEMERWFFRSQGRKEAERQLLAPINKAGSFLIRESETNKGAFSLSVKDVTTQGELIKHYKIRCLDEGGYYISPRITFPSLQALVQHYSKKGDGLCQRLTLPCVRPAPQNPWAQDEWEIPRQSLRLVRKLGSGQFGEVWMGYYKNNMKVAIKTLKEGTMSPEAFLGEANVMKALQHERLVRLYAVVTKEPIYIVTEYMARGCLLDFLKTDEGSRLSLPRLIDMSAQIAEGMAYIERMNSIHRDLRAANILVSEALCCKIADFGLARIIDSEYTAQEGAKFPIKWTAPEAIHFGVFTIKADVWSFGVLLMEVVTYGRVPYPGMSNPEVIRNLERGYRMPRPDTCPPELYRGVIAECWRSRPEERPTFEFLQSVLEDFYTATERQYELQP

[4] = molecular target: T1, Tyrosine-protein kinase TXK (Homo sapiens) (UniProt P42681); assay: Inhibition of TXK (unknown origin) at 1 uM relative to control
T1 sequence (whole entry): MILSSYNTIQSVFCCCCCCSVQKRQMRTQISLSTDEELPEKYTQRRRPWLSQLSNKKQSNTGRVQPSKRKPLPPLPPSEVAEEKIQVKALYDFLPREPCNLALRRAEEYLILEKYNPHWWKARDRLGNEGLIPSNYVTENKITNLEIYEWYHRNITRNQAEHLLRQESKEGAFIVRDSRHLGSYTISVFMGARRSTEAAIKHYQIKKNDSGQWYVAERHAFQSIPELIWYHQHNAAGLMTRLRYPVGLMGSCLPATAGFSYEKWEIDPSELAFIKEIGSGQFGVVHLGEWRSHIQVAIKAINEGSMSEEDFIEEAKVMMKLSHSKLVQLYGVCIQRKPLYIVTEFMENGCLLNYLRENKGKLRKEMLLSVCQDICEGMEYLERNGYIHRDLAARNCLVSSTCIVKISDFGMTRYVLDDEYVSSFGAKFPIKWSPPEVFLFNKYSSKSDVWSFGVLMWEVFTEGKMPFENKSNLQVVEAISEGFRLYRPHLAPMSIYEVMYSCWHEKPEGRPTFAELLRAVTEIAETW

[5] = molecular target: Receptor tyrosine-protein kinase erbB-4 (Homo sapiens) (UniProt Q15303); assay: Inhibition of ERBB4 (unknown origin) at 1 uM relative to control
Receptor tyrosine-protein kinase erbB-4 (Homo sapiens), sequence (Q15303 whole entry): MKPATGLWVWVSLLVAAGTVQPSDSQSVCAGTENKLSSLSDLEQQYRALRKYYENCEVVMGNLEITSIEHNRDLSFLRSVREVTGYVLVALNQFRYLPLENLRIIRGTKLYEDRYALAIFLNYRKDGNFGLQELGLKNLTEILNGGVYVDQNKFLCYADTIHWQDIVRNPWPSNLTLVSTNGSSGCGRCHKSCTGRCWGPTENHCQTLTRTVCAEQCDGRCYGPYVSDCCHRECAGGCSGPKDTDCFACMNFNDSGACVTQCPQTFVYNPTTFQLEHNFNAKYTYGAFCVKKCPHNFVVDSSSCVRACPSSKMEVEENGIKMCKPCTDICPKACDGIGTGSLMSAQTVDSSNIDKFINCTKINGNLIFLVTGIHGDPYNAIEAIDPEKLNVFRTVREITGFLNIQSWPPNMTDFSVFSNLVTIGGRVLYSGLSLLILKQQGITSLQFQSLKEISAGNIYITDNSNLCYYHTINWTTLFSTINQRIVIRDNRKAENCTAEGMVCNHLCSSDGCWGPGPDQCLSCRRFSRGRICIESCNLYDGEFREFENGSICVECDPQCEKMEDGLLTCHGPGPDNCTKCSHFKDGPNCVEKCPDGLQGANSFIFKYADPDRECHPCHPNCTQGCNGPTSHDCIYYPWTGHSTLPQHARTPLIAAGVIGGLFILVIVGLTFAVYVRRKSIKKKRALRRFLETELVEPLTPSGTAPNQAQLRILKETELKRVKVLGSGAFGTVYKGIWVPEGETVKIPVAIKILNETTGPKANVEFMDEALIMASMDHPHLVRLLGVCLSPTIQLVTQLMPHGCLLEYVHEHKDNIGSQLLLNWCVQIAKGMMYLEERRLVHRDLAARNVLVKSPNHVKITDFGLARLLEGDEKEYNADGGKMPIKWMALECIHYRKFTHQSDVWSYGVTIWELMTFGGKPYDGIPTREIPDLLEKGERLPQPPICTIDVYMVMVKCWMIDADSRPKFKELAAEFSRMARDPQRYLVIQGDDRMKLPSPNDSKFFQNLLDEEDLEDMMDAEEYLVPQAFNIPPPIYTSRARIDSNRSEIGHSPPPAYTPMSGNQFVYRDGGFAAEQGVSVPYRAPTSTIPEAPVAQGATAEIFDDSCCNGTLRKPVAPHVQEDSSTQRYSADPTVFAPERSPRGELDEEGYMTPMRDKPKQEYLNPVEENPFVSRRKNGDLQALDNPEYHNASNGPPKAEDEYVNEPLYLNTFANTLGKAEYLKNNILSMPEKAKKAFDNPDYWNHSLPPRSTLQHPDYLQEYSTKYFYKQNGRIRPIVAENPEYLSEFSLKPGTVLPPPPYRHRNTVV

[6] = molecular target: Tyrosine-protein kinase Lck (Homo sapiens) (UniProt P06239); assay: Inhibition of LCK (unknown origin) at 1 uM relative to control
Tyrosine-protein kinase Lck (Homo sapiens), sequence (P06239 2-509 limits assumed): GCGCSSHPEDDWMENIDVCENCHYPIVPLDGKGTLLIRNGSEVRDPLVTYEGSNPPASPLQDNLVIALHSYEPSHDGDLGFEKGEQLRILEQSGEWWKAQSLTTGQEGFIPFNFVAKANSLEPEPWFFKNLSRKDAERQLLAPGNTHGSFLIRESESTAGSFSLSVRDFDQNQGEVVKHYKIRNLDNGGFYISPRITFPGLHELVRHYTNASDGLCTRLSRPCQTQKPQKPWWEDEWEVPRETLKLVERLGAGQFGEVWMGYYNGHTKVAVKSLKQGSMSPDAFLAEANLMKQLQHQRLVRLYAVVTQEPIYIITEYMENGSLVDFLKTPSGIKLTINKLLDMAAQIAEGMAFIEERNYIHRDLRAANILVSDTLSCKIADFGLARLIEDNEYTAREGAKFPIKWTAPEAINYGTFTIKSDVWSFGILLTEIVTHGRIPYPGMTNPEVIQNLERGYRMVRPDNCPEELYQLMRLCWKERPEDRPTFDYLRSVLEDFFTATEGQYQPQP

[7] = molecular target: Protein-tyrosine kinase 6 (Homo sapiens) (UniProt Q13882); assay: Inhibition of BRK (unknown origin) at 1 uM relative to control
Protein-tyrosine kinase 6 (Homo sapiens), sequence (Q13882 whole entry, looked up): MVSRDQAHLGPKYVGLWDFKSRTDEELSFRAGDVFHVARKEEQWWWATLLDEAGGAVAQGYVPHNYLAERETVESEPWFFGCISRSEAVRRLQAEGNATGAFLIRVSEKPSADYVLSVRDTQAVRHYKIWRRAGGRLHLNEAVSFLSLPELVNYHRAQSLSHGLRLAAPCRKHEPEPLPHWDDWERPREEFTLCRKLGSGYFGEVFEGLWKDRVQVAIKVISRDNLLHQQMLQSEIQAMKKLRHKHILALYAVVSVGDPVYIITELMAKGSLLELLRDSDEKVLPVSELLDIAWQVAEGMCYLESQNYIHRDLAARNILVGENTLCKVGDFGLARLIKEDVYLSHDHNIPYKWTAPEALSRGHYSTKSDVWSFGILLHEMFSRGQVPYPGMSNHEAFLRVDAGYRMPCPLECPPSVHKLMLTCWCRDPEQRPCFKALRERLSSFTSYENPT

[8] = molecular target: Tyrosine-protein kinase Fgr (Homo sapiens) (UniProt P09769); assay: Inhibition of FGR (unknown origin) at 1 uM relative to control
Tyrosine-protein kinase Fgr (Homo sapiens), sequence (P09769 2-529 limits assumed): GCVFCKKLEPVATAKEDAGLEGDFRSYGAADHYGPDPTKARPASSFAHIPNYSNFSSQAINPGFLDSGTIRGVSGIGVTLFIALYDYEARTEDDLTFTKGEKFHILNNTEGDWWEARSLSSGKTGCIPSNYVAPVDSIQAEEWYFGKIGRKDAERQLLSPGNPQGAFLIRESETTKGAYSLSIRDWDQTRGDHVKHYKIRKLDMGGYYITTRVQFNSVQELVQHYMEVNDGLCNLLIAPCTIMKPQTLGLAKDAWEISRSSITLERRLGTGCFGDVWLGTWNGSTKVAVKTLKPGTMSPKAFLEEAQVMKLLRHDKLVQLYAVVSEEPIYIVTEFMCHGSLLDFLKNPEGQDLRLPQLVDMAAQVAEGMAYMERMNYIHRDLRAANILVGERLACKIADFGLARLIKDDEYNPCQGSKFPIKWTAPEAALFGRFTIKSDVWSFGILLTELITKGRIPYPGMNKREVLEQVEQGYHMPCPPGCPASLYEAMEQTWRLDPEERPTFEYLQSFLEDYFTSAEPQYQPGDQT

[9] = molecular target: Tyrosine-protein kinase Tec (Homo sapiens) (UniProt P42680); assay: Inhibition of TEC (unknown origin) at 1 uM relative to control
Tyrosine-protein kinase Tec (Homo sapiens), sequence (P42680 whole entry, looked up): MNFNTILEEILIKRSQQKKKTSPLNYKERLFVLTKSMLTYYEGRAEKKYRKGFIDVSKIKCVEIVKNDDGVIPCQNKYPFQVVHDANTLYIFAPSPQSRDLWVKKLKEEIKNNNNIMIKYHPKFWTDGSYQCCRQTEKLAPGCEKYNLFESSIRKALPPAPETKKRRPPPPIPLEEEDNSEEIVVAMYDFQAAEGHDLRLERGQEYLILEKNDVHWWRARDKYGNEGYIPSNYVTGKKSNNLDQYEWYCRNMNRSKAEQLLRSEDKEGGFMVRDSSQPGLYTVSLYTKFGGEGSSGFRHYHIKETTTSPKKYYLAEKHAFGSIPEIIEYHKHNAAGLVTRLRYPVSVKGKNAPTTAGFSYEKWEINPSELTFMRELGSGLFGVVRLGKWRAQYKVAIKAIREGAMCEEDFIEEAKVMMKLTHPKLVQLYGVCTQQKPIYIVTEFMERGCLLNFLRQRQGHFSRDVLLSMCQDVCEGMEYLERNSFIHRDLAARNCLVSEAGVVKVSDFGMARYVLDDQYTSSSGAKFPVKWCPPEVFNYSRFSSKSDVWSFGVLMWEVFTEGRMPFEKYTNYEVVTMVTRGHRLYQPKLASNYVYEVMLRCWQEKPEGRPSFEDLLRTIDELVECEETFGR

Tyrosine-protein kinase BTK (Homo sapiens), sequence (Q06187 whole entry): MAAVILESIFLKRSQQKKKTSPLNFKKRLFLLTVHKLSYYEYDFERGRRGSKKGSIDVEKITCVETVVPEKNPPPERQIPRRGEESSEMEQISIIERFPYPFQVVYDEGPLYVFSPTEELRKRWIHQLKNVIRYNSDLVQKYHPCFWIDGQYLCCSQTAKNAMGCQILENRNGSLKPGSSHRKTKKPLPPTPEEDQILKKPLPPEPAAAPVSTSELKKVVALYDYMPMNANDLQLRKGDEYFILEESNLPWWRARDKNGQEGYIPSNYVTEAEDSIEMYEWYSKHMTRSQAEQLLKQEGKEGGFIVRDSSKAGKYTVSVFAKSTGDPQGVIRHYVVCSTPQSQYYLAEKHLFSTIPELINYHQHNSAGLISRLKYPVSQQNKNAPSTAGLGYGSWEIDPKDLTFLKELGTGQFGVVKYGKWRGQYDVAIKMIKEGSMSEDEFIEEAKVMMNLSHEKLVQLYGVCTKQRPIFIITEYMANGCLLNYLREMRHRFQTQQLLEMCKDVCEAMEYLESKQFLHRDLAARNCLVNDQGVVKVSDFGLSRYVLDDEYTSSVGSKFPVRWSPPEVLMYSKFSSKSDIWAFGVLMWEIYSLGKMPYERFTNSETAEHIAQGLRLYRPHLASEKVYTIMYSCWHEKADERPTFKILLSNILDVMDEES

| inhibition [1] | inhibition [2] [%] | inhibition [3] [%] | inhibition [4] [%] | inhibition [5] [%] | inhibition [6] [%] | inhibition [7] [%] | inhibition [8] [%] | inhibition [9] [%] | Structure (SMILES) |
| --- | --- | --- | --- | --- | --- | --- | --- | --- | --- |
| Active | 10 | 10 | 10 | 10 | 50 | 50 | 50 | 10 | C=CC(=O)N1CCC[C@H](n2nc(-c3c(C)cc(Oc4ccccc4)cc3C)c3c(N)ncnc32)C1 |
| Active |  |  |  |  |  |  |  |  | C=CC(=O)N1CCC[C@H](n2nc(-c3ccc(Oc4ccccc4)cc3C)c3c(N)ncnc32)C1 |
